{"source": "patent US20040167220A1", "about": "“Environmentally safe fungicide and bactericide formulations” (priority 2003, published 2004)", "key": {"[1]": {"system": "Colletotrichum graminicola", "assay": "In vitro PDA plate test against fungal plant pathogens; also: key: 0 - no activity, mycelial growth occurred; Fs - Fungistatic activity; Fd - Fungicidal effect - mycelial growth was completely inhibited", "type": "cell-based"}, "Alternaria solani [2]": {"system": "Alternaria solani", "assay": "In vitro PDA plate test against fungal plant pathogens", "type": "cell-based"}, "Sclerotinia sclerotiorum": {"system": "Sclerotinia sclerotiorum", "assay": "In vitro PDA plate test against fungal plant pathogens", "type": "cell-based", "details": "sodium benzoate 5.0 mM, pH adjusted with citric acid"}, "Sclerotinia homoeocarpa": {"system": "Sclerotinia homoeocarpa", "assay": "In vitro PDA plate test against fungal plant pathogens", "type": "cell-based", "details": "sodium benzoate 5.0 mM, pH adjusted with citric acid"}, "Botrytis cinerea [3]": {"system": "Botrytis cinerea", "assay": "In vitro PDA plate test against fungal plant pathogens", "type": "cell-based"}, "Fusarium nygamai [4]": {"system": "Fusarium nygamai", "assay": "In vitro PDA plate test against fungal plant pathogens", "type": "cell-based", "details": "sodium benzoate 5.0 mM, pH adjusted with citric acid"}, "Fusarium moniliforme": {"system": "Fusarium moniliforme", "assay": "In vitro PDA plate test against fungal plant pathogens", "type": "cell-based", "details": "sodium benzoate 5.0 mM, pH adjusted with citric acid"}, "Fusarium proliferatum": {"system": "Fusarium proliferatum", "assay": "In vitro PDA plate test against fungal plant pathogens", "type": "cell-based"}, "Rhytisma acerinum": {"system": "Rhytisma acerinum", "assay": "In vitro PDA plate test against fungal plant pathogens", "type": "cell-based"}, "Alternaria solani [5]": {"system": "Alternaria solani", "details": "preservative used without the acidic pH of the invention"}, "Fusarium nygamai [6]": {"system": "Fusarium nygamai", "details": "preservative used without the acidic pH of the invention"}, "Botrytis cinerea [7]": {"system": "Botrytis cinerea", "details": "preservative used without the acidic pH of the invention"}, "[8]": {"details": "sodium benzoate 5.0 mM, pH adjusted with citric acid, in PDA"}, "[9]": {"details": "potassium sorbate and citric acid in PDA, examined after 2, 4, 6 days, viability on untreated PDA"}, "[10]": {"details": "potassium sorbate/citric acid formulations, with or without surfactants, in PDA"}}, "data": [{"smiles": "O=C([O-])c1ccccc1.[Na+]", "note": "[Control C, sodium benzoate]", "values": [{"measurement": "Activity against Colletotrichum graminicola", "setting": "[1]; [8]", "result": 0}, {"measurement": "Activity against Alternaria solani", "setting": "Alternaria solani [2]; [8]", "result": 0}, {"measurement": "Activity against Sclerotinia sclerotiorum", "setting": "Sclerotinia sclerotiorum", "result": 0}, {"measurement": "Activity against Sclerotinia homoeocarpa", "setting": "Sclerotinia homoeocarpa", "result": 0}, {"measurement": "Activity against Botrytis cinerea", "setting": "Botrytis cinerea [3]; [8]", "result": 0}, {"measurement": "Activity against Fusarium nygamai", "setting": "Fusarium nygamai [4]", "result": 0}, {"measurement": "Activity against Fusarium moniliforme", "setting": "Fusarium moniliforme", "result": 0}, {"measurement": "Activity against Fusarium proliferatum", "setting": "Fusarium proliferatum; [8]", "result": 0}, {"measurement": "Activity against Rhytisma acerinum", "setting": "Rhytisma acerinum; [8]", "result": 0}]}, {"smiles": "C/C=C/C=C/C(=O)[O-].[K+]", "note": "[Control A, potassium sorbate]", "values": [{"measurement": "Activity against Colletotrichum gram.", "setting": "[1]; [9]", "result": 0}, {"measurement": "Activity against Alternaria solani", "setting": "Alternaria solani [2]; [9]", "result": 0}, {"measurement": "Activity against Botrytis cinerea", "setting": "Botrytis cinerea [3]; [9]", "result": 0}, {"measurement": "Activity against Fusarium proliferatum", "setting": "Fusarium proliferatum; [9]", "result": 0}, {"measurement": "Activity against Rhytisma acerinum", "setting": "Rhytisma acerinum; [9]", "result": 0}]}, {"smiles": "O=C([O-])c1ccccc1.[Na+]", "note": "[sodium benzoate]", "values": [{"measurement": "control of the plant pathogens", "setting": "plant pathogens; 5 mM (0.072% solution), pH above 7.0", "result": "ineffective"}, {"measurement": "species tested being killed", "setting": "plant pathogens; 5 mM, pH 4.1", "result": "10 out of 10"}, {"measurement": "species with cidal activity", "setting": "plant pathogens; 5 mM, pH 4.6", "result": "6 out of 10"}]}, {"smiles": "C/C=C/C=C/C(=O)[O-].[K+]", "note": "[potassium sorbate]", "values": [{"measurement": "concentration required to kill Alternaria solani", "setting": "Alternaria solani [5]", "result": "greater than 2%"}, {"measurement": "concentration required to kill Fusarium nygamai", "setting": "Fusarium nygamai [6]", "result": "greater than 2%"}, {"measurement": "pathogens killed", "setting": "plant pathogens; 1 mM (0.0015%), pH 4.1, surfactants added", "result": "7 out of 8"}, {"measurement": "activity against the broad range of plant pathogens tested", "setting": "plant pathogens; 5 mM (0.075% solution), pH 4.1", "result": "cidal activity"}, {"measurement": "activity against plant pathogens", "setting": "plant pathogens; 10 mM (0.15% solution), pH above 7.0", "result": "inactive or at best exhibits only static activity"}, {"measurement": "number of pathogens with cidal activity", "setting": "plant pathogens; down to 1 mM sorbate or lower, pH 4.1", "result": "two"}, {"measurement": "concentration required to kill Botrytis cinerea", "setting": "Botrytis cinerea [7]", "result": "greater than 2%"}]}, {"smiles": "C/C=C/C=C/C(=O)[O-].[K+]", "note": "[Control B, potassium sorbate]", "values": [{"measurement": "Activity against Colletotrichum gram.", "setting": "[1]; [10]", "result": 0}, {"measurement": "Activity against Alternaria solani", "setting": "Alternaria solani [2]; [10]", "result": 0}, {"measurement": "Activity against Botrytis cinerea", "setting": "Botrytis cinerea [3]; [10]", "result": 0}, {"measurement": "Activity against Fusarium proliferatum", "setting": "Fusarium proliferatum; [10]", "result": 0}, {"measurement": "Activity against Rhytisma acerinum", "setting": "Rhytisma acerinum; [10]", "result": 0}]}]}
